Experimental data: publication PMC9519446, “Discovery of an Orally Active Benzoxaborole Prodrug Effective in the Treatment of Chagas Disease in Non-human Primates” (Nature microbiology, 2022)
pIC50: −log10 of the molar value.

Tests used:
[1] = test system: T. cruzi of diverse genetic types (DTUs); assay: In vitro susceptibility of T. cruzi strains of diverse genetic types (DTUs); format: cell-based; conditions: Trypanosoma cruzi
Protocol: C57BL/6J mice were purchased from The Jackson Laboratory (Bar Harbor, ME), and B6.129S7-Ifngtm1Ts/J (IFN-gamma deficient) were bred in-house at the University of Georgia Animal Facility. The SKH-1 “hairless” mice backcrossed to C57BL/6 were a gift from Dr. Lisa DeLouise (University of Rochester). All the animals were maintained in the University of Georgia Animal Facility under specific pathogen–free conditions at 22°C, 50% humidity and in a 12:12 hs light:dark cycle. Male and female mice of 6 to 9 weeks of age were used. All mouse experiments were carried out in strict accordance with the Public Health Service Policy on Humane Care and Use of Laboratory Animals and Association for Assessment and Accreditation of Laboratory Animal Care accreditation guidelines. The protocol was approved by the University of Georgia Institutional Animal Care and Use Committee. […] Parasites genotypes were determined as previously described.
(§1) The in vitro anti-T. cruzi amastiogote activity assay was performed and optimized based on the protocol described previously. The change in tdTomato fluorescence intensity was determined as a measurement of growth over 72 hours of culture. For assaying drug effects on extracellular amastigotes, trypomastigotes were collected from infected Vero cell cultures and converted in acidic media as previously described. Amastigotes (50,000/well) were incubated with 2-fold serial dilutions of compounds for 48 hours. The ATP production was used as an indication of growth in this case, and was measured by ATPlite Luminescence ATP Detection Assay System (PerkinElmer). Both fluorescence and luminescence were read using a BioTek Synergy Hybrid Multi-Mode reader equipped with the software Gene5 v 2.0 (BioTek). The dose-response curve was generated by […] analysis with GraphPad Prism v9.4.0 (GraphPad Software).

[2] = test system: wild-type and peptidase knockout T. cruzi epimastigotes and amastigotes; assay: LC-MS/MS analysis of intracellular AN15368 and AN14667 (uptake and conversion); format: cell-based, Trypanosoma cruzi; conditions: epimastigotes 10 uM, amastigotes 50 nM; WT vs CBP KO
Protocol: The cells were then pelleted and resuspended in 100 μL of PBS. The cell suspension was mixed with 200 μl of acetonitrile and centrifuged at 735 gfor 10 minutes at room temperature. After extraction, the supernatant was further diluted with methanol:water 30:70 (v/v) containing 0.4 nM internal standard (IS) AN14817 to a concentration within the calibration range. Each sample was diluted in triplicate to provide technical replicates and the diluted sample (10 μL) was injected for subsequent LC-MS/MS analysis.
LC-MS/MS analysis was performed on a Waters ACQUITY I-Class UPLC system coupled to a Xevo TQ-S triple quadrupole mass spectrometer. An ACQUITY UPLC BEH C18 column (130 Å, 1.7 μm, 2.1 mm x 50 mm) was used for chromatographic separation, and the column temperature was 40 °C. The mobile phase consisted of water (A) and methanol (B), both containing 0.1% (v/v) formic acid. The following gradient elution was performed at a flow rate of 0.4 mL/min: 0 – 0.5 min, 30% B; 0.5 – 3 min, 30 – 95% B; 3 – 4 min, 95% B; 4 – 4.1 min, 95 – 30% B; and 4.1 – 5 min, 30% B. The MS ionization was carried out in the positive electrospray ionization (ESI) mode with following conditions: capillary voltage = 1.50 kV; desolvation temperature = 500 °C; desolvation gas flow = 1000 L/h; and nebulizer gas pressure = 7.0 bar. […] Data were processed using TargetLynx v4.1 software (Waters).

[3] = test system: TcCBP KO T. cruzi intracellular amastigotes; assay: microbe, parasite or virus in culture; format: cell-based; conditions: Trypanosoma cruzi, read-out: TcCBP KO IC50
Protocol: as §1
The CBPs knockout was produced using ribonucleoprotein (RNP) complexes as previously described. Briefly, Brazil tdTomato strain epimastigotes were electroporated with RNP complexes containing SaCas9 and an sgRNA targeting CBP gene TcBrA4_0048170, plus a repair template containing stop codons in all three reading frames and the M13 sequence for use as a PCR anchor. The sgRNA targeted the ‘[…]” sequence. After 2 days of recovery, single-cell clones were derived by depositing epimastigotes into a 96-well plate at a density of 0.5 cell/well by using a MoFlo Astrios EQ cell sorter (Beckman Coulter). DNA isolation was performed for clones, and primer pair of 5’-[…]-3’ and 5’- […] -3’ was used for amplifying the wild type allele, while primer pair of M13-F: 5’- […] -3’ and 5’- […] -3’ was used for amplifying the mutant allele.

Row | Compound | pIC50 ([1]; Strain 20290, DTU TcI) | IC90 ([1]; Strain 20290, DTU TcI) | pIC50 ([1]; Strain 20392, DTU TcIV) | IC90 ([1]; Strain 20392, DTU TcIV) | pIC50 ([1]; Strain ARC0704, DTU TcI) | IC90 ([1]; Strain ARC0704, DTU TcI) | pIC50 ([1]; Strain CL, DTU TcVI) | IC90 ([1]; Strain CL, DTU TcVI) | pIC50 ([1]; Strain Colombiana, DTU TcI) | IC90 ([1]; Strain Colombiana, DTU TcI) | pIC50 ([1]; Strain M5631, DTU TcIII) | IC90 ([1]; Strain M5631, DTU TcIII) | pIC50 ([1]; Strain Montalvania, DTU TcI) | IC90 ([1]; Strain Montalvania, DTU TcI) | pIC50 ([1]; Strain Tul8, DTU TcII) | IC90 ([1]; Strain Tul8, DTU TcII) | accumulation and conversion to cleaved product AN14667 [2] | pIC50 [3]
1 | Cc1c(C(=O)NC(C(=O)OCc2ccc(F)c(F)c2)C(C)C)ccc2c1B(O)OC2 (stereo not drawn) [AN14353] | 8.52 | 5 nM | 8.30 | 10 nM | 8.52 | 7 nM | 8.22 | 18 nM | 8.15 | 10 nM | 9.00 | 3 nM | 9.00 | 2 nM | 9.00 | 2 nM | – | –
2 | Cc1c(C(=O)N[C@H](C(=O)OCC2CCOCC2)C(C)C)ccc2c1B(O)OC2 [AN15368] | – | – | – | – | – | – | – | – | – | – | – | – | – | – | – | – | conversion to the cleaved product in wild-type T. cruzi epimastigotes and amastigotes but not in the KO line | 5.60
